From the supplement of paper PMC11061612

Key:
Test in all cases: combination Emax (second highest fraction inhibited in the dose matrix, 72 h); higher = more inhibition; extreme values may be limits of the assay
EW-1 (Ewing's Sarcoma) = test system: EW-1 (Ewing's Sarcoma)
Outline: (§1)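 Bliss excess equals the observed combination effect minus the expected value EA + EB − EA·EB, where EA and EB are the effects of each agent alone. Combination Emax is the second-highest inhibition within the matrix. Inhibition was scaled from CellTiter-Glo 2.0 luminescence, with 0 set by vehicle wells and 1 by blank wells, after 72 hours of two-drug dosing of cells plated in 1536-well plates.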

[1] = test system: HAL-01 (B-Lymphoblastic Leukemia)
Outline: as §1

[2] = test system: Mo-T (Other Blood Carcinomas)
Outline: as §1

SK-N-AS (Neuroblastoma) = test system: SK-N-AS (Neuroblastoma)
Outline: as §1

Compound | combination Emax (EW-1 (Ewing's Sarcoma)) | combination Emax [1] | combination Emax [2] | combination Emax (SK-N-AS (Neuroblastoma))
Cc1c2c(nn1C)CSCc1cc(n(C)n1)CSc1cc(c3ccccc3c1)OCCCc1c(C(=O)O)n(C)c3c-2c(Cl)ccc13 [AZD5991] + Cc1cc2ncnn2cc1Nc1ncc2c(n1)n(C1CCOCC1)c(=O)n2C [AZD7648] (first compound max 1 µM, 7x7, partner max 10 µM) | 0.421 | 0.704 | 0.262 | 0.59
CC1(C)CCC(CN2CCN(c3ccc(C(=O)NS(=O)(=O)c4ccc(NCC5CCOCC5)c([N+](=O)[O-])c4)c(Oc4cnc5[nH]ccc5c4)c3)CC2)=C(c2ccc(Cl)cc2)C1 [Venetoclax] + Cn1cnc2c(F)c(Nc3ccc(Br)cc3Cl)c(C(=O)NOCCO)cc21 [Selumetinib] (first compound max 1 µM, 7x7, partner max 3 µM) | 0.238 | 0.97 | 0.618 | 0.647
COc1cccc(OCCCN)c1-c1cc(Nc2cnc(C#N)cn2)n[nH]1 [Prexasertib] + O=C(c1cc(Cc2n[nH]c(=O)c3ccccc23)ccc1F)N1CCN(C(=O)C2CC2)CC1 [Olaparib] (first compound max 1 µM, 7x7, partner max 10 µM) | 0.96 | 1 | 0.52 | 0.995
CC1(C)CCC(CN2CCN(c3ccc(C(=O)NS(=O)(=O)c4ccc(NCC5CCOCC5)c([N+](=O)[O-])c4)c(Oc4cnc5[nH]ccc5c4)c3)CC2)=C(c2ccc(Cl)cc2)C1 [Venetoclax] + COc1cc(Nc2ncc3c(n2)-c2ccc(Cl)cc2C(c2c(F)cccc2OC)=NC3)ccc1C(=O)O [Alisertib] (first compound max 1 µM, 7x7, partner max 10 µM) | 0.628 | 1 | 0.71 | 0.818
CN(C)CCCOc1ccc(-c2ccc3ncc4c(c3c2)n(C2CCOCC2)c(=O)n4C)cn1 [AZD0156] + C[C@@H]1COCCN1C2=NC(=NC(=C2)C3(CC3)[S@](=N)(=O)C)C4=C5C=CNC5=NC=C4 [AZD6738] (first compound max 1 µM, 7x7, partner max 10 µM) | 0.93 | 0.988 | 0.481 | 0.805
Cc1c2c(nn1C)CSCc1cc(n(C)n1)CSc1cc(c3ccccc3c1)OCCCc1c(C(=O)O)n(C)c3c-2c(Cl)ccc13 [AZD5991] + C[C@@H](Nc1cc(F)cc(F)c1)c1cc(C(=O)N(C)C)cc2c(=O)cc(N3CCOCC3)oc12 [AZD8186] (first compound max 1 µM, 7x7, partner max 3 µM) | 0.367 | 0.734 | 0.319 | 0.643
Cc1c2c(nn1C)CSCc1cc(n(C)n1)CSc1cc(c3ccccc3c1)OCCCc1c(C(=O)O)n(C)c3c-2c(Cl)ccc13 [AZD5991] + CC1(C)CCC(CN2CCN(c3ccc(C(=O)NS(=O)(=O)c4ccc(NCC5CCOCC5)c([N+](=O)[O-])c4)c(Oc4cnc5[nH]ccc5c4)c3)CC2)=C(c2ccc(Cl)cc2)C1 [Venetoclax] (first compound max 1 µM, 7x7, partner max 1 µM) | 0.684 | 0.984 | 0.196 | 0.871
CC1(C)CCC(CN2CCN(c3ccc(C(=O)NS(=O)(=O)c4ccc(NCC5CCOCC5)c([N+](=O)[O-])c4)c(Oc4cnc5[nH]ccc5c4)c3)CC2)=C(c2ccc(Cl)cc2)C1 [Venetoclax] + C[C@@H]1COCCN1C2=NC(=NC(=C2)C3(CC3)[S@](=N)(=O)C)C4=C5C=CNC5=NC=C4 [AZD6738] (first compound max 1 µM, 7x7, partner max 10 µM) | 0.944 | 1 | 0.735 | 0.896
NC1(C(=O)N[C@@H](CCO)c2ccc(Cl)cc2)CCN(c2ncnc3[nH]ccc23)CC1 [Capivasertib] + CC(C)n1c(=O)n(C)c2cnc3cc(F)c(-c4ccc(OCCCN5CCCCC5)nc4)cc3c21 [AZD1390] (first compound max 10 µM, 7x7, partner max 0.3 µM) | 0.352 | 0.492 | 0.239 | 0.157
